From ChEMBL document CHEMBL3751699, “Design, synthesis and evaluation of novel 7-aminoalkyl-substituted flavonoid derivatives with improved cholinesterase inhibitory activities” (Bioorg Med Chem, 2016)
Active and inactive are the calls of the source. The calls are words filed in the database; no cut-off is given here.

Assays:
[1] = Cytotoxicity against human HepG2 cells at 10 uM after 48 hrs by MTT assay; format: cell-based; details: read-out: INH
[2] = Cytotoxicity against human HepG2 cells at 1 uM after 48 hrs by MTT assay; format: cell-based; details: read-out: INH
[3] = Cytotoxicity against rat PC12 cells at 10 uM after 48 hrs by MTT assay; format: cell-based, PC-12; details: read-out: INH
[4] = Cytotoxicity against rat PC12 cells at 1 uM after 48 hrs by MTT assay; format: cell-based, PC-12; details: read-out: INH
[5] = Selectivtiy index, ratio of IC50 for equine serum BChE to IC50 for electric eel AChE
[6] = target: T1, Acetylcholinesterase (Electrophorus electricus, UniProt O42275); assay: Inhibition of electric eel AChE using ATC as substrate preincubated for 15 mins followed by substrate addition measured at 1 min intervals by Ellman method
[7] = target: Cholinesterase (Equus caballus, UniProt P81908); assay: Inhibition of equine serum BChE using BTC as substrate preincubated for 15 mins followed by substrate addition measured at 1 min intervals by Ellman method
[8] = target: Acetylcholinesterase (Electrophorus electricus) (UniProt O42275); assay: Potency index, ratio of IC50 for rivastigmine to IC50 for test compound for inhibition of electric eel AChE by Ellman method
[9] = target: T1, Acetylcholinesterase; assay: Mixed-type inhibition of electric eel AChE using ATC as substrate assessed as hydrolysis of ATC preincubated with protein for 15 mins followed by substrate addition by Lineweaver-Burk plot analysis
[10] = target: Cholinesterase (Equus caballus) (UniProt P81908); assay: Mixed-type inhibition of equine serum BChE using BTC as substrate assessed as hydrolysis of BTC preincubated with protein for 15 mins followed by substrate addition by Lineweaver-Burk plot analysis
Sequence of Cholinesterase (Equus caballus) (P81908 whole entry): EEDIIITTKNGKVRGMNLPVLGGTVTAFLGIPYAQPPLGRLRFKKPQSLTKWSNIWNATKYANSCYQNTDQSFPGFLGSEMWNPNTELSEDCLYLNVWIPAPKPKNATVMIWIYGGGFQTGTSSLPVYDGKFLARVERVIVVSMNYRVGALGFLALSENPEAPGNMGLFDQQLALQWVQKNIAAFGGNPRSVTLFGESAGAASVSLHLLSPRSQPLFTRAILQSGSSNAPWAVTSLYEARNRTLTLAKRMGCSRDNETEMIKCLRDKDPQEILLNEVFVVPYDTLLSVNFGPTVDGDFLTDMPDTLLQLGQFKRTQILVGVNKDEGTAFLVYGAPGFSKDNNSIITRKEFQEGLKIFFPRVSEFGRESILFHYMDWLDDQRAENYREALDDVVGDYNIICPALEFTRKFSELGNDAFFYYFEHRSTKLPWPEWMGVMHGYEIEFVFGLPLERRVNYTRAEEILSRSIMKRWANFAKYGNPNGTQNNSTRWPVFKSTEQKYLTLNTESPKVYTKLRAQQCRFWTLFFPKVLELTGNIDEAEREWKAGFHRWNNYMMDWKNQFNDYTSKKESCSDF

T1 sequence (O42275 whole entry): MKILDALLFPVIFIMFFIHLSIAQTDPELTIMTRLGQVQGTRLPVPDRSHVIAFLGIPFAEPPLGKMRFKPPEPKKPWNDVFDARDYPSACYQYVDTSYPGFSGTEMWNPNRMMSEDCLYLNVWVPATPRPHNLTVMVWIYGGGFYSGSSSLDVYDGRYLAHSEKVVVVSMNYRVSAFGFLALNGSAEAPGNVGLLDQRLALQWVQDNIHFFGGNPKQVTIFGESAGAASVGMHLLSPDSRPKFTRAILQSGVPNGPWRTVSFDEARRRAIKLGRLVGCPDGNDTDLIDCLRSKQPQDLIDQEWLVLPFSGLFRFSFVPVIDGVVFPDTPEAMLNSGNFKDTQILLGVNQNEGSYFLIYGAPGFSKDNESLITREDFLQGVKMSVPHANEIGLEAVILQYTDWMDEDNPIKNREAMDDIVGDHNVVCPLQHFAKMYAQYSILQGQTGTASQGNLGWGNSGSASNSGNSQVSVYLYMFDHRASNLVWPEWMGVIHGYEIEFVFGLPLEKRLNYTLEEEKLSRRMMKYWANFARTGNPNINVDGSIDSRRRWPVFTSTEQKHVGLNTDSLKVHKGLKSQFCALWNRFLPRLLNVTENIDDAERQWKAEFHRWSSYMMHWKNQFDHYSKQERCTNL
Sequence of Cholinesterase (P81908 whole entry): as the sequence (P81908 whole entry) above
Sequence of Acetylcholinesterase (Electrophorus electricus) (O42275 24-633 limits assumed): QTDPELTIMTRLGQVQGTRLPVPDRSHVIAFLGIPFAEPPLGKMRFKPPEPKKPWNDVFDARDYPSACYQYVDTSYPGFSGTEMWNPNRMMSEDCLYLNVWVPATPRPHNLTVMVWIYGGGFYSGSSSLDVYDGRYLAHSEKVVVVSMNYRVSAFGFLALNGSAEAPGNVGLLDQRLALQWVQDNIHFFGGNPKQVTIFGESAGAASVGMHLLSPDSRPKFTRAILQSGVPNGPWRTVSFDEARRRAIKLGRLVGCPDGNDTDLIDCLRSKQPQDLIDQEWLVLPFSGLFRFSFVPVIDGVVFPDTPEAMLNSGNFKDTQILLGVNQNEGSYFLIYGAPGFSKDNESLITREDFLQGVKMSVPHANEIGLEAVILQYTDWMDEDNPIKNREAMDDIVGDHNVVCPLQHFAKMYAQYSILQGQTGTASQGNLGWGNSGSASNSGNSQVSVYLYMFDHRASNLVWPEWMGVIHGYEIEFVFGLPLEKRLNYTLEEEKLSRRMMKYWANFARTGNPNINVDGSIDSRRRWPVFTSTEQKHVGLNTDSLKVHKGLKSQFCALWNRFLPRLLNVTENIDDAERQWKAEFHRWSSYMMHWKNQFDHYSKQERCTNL

| Compound | cytotoxicity at 48 h, 10 µM [1] [%] | cytotoxicity at 48 h, 1 µM [2] [%] | cytotoxicity at 48 h, 10 µM [3] [%] | cytotoxicity at 48 h, 1 µM [4] [%] | Ratio IC50 [5] | IC50 [6] [µM] | IC50 [7] [µM] | Ratio IC50 [8] | Ki [9] [µM] | inhibition [10] |
| --- | --- | --- | --- | --- | --- | --- | --- | --- | --- | --- |
| O=c1cc(-c2cccc(OCc3ccccc3)c2)oc2cc(OCCCCCCCCN3CCCC3)ccc12 | 30.6 | 6.63 | -2.53 | 0.79 | > 15.8 | 1.58 | > 25 |  |  |  |
| COc1cccc(-c2cc(=O)c3ccc(OCCCCCCCCN4CCCC4)cc3o2)c1 | 23.7 | 16.2 | -18.2 | 3.53 | 3.42 | 0.67 | 2.29 |  |  |  |
| Cc1ccc(-c2cc(=O)c3ccc(OCCCCCCCCN4CCCC4)cc3o2)cc1 | 77.1 | 9.17 | -0.03 | -0.55 | 1.54 | 1.25 | 1.92 |  |  |  |
| COc1cc(-c2cc(=O)c3ccc(OCCCCCCCCN4CCCC4)cc3o2)cc(OC)c1OC | 41.4 | 16.3 | -13.8 | -4.47 | 2.04 | 1.08 | 2.2 |  |  |  |
| O=c1cc(-c2ccc(N3CCCC3)cc2)oc2cc(OCCCCCCCCN3CCCC3)ccc12 | 19 | 5.74 | -9.56 | 0.29 | 2.97 | 1.38 | 4.1 |  |  |  |
| O=c1cc(-c2ccccc2)oc2cc(OCCCCCCCCN3CCCC3)ccc12 | 8.97 | 11.3 | 1.37 | -2.83 | 2.05 | 1.09 | 2.24 |  |  |  |
| O=c1cc(-c2ccc(Cl)cc2)oc2cc(OCCCCCCCCN3CCCC3)ccc12 | 25.7 | 6.39 | -1.7 | 6.27 | 3.09 | 1.12 | 3.46 |  |  |  |
| COc1ccc(-c2cc(=O)c3ccc(OCCCCCCCCN4CCCC4)cc3o2)cc1OC | 76 | 13.5 | -2.94 | 7.29 | 4.13 | 0.83 | 3.43 |  |  |  |
| O=c1cc(-c2ccccc2O)oc2cc(OCCCCCCCCN3CCCC3)ccc12 | 60.6 | 5.92 | 6.61 | -7.71 | 0.41 | 3.07 | 1.26 |  |  |  |
| O=c1cc(-c2ccc(O)cc2)oc2cc(OCCCCCCCCN3CCCC3)ccc12 | 21.4 | 18.5 | 7.42 | 0.7 | 3.79 | 1.21 | 4.58 |  |  |  |
| O=c1cc(-c2ccc(OCc3ccccc3)cc2)oc2cc(OCCCCCCCCN3CCCC3)ccc12 | 54.3 | 10.4 | 1.37 | -2.83 | > 13.2 | 1.9 | > 25 |  |  |  |
| COc1ccccc1-c1cc(=O)c2ccc(OCCCCCCCCN3CCCC3)cc2o1 | 24.3 | 5.9 | 3.4 | 3.08 | 1.19 | 0.64 | 0.76 | 10 |  |  |
| O=c1cc(-c2ccc(-c3ccccc3)cc2)oc2cc(OCCCCCCCCN3CCCC3)ccc12 | 71.9 | 13.9 | 68.9 | 0.46 | > 5.21 | 4.8 | > 25 |  |  |  |
| O=c1cc(-c2cccc3ccccc23)oc2cc(OCCCCCCCCN3CCCC3)ccc12 | 18.9 | 4.42 | 9.01 | 3 | 0.58 | 0.72 | 0.42 |  | 0.206 | Active |
| COc1ccc(-c2cc(=O)c3ccc(OCCCCCCCCN4CCCC4)cc3o2)cc1 | 21.5 | 6.69 | -6.72 | -0.15 | 3.19 | 1.7 | 5.42 |  |  |  |
| Nc1c2c(nc3ccccc13)CCCC2 [TACRINE] |  |  | 10.2 | 4.62 |  |  |  |  |  |  |
| O=c1cc(-c2ccccc2OCc2ccccc2)oc2cc(OCCCCCCCCN3CCCC3)ccc12 | 34.1 | 19.7 | 22.9 | 0.47 | 2.62 | 2.01 | 5.26 |  |  |  |
| O=c1cc(-c2cccc(O)c2)oc2cc(OCCCCCCCCN3CCCC3)ccc12 | 43.9 | 19 | -6.56 | -4.43 | 4.39 | 1.12 | 4.92 |  |  |  |
| O=c1cc(-c2ccc(Br)cc2)oc2cc(OCCCCCCCCN3CCCC3)ccc12 | 10.8 | 13.3 | -12.5 | 2.5 | 4.77 | 2.15 | 10.2 |  |  |  |
